# Test results: patent US20240158446A1, “CYCLIC COMPOUND HAVING SELECTIVE INHIBITORY ACTION ON KRAS OVER HRAS AND NRAS” (CHUGAI SEIYAKU KABUSHIKI KAISHA, priority 2021, published 2024)
# *1 amine or outer side, *2 acyl side, *3 side chain or, on linkers, in order; H or OH if unused. Where a SMILES comes first, the peptide text is derived from it. Bridges are numbered along the chain shown (N, C = ends). [ ]: non-standard residue; d: D form. The star is where a group is joined. hPhe(3-Cl-4-CF3) = N[C@@H](CCc1ccc(C(F)(F)F)c(Cl)c1)C(=O)O; X36 = Cc1ccc(C[C@@H](C(=O)[*:2])N(CCC(F)(F)F)[*:1])cc1; X41 = Cc1ccc(C[C@@H](C(=O)[*:2])N(CC2CCCCC2)[*:1])cc1; X20 = Cc1ccc(C[C@@H](C(=O)[*:2])N(CC2CCCC2)[*:1])cc1; NMePhe(4-CF3) = CN[C@@H](Cc1ccc(C(F)(F)F)cc1)C(=O)O; X15 = Cc1ccc(C[C@@H](C(=O)[*:2])N(CCC(C)C)[*:1])cc1; X42 = Cc1ccc(C[C@@H](C(=O)[*:2])N(CC2CCC2)[*:1])cc1; X28 = COCCCN([C@@H](Cc1ccc(C)cc1)C(=O)[*:2])[*:1]; X30 = C=CCCN([C@@H](Cc1ccc(C)cc1)C(=O)[*:2])[*:1]; X35 = COCCN([C@@H](Cc1ccc(C)cc1)C(=O)[*:2])[*:1]; NPrPhe(4-Me) = CCCN[C@@H](Cc1ccc(C)cc1)C(=O)O; NMeGly(cPent) = CN[C@H](C(=O)O)C1CCCC1; NMeD = CN[C@@H](CC(=O)O)C(=O)O; NMeL = CN[C@@H](CC(C)C)C(=O)O; Morpholide = C1CN(*)CCO1; NMeA = CN[C@@H](C)C(=O)O; Ac5c = NC1(C(=O)O)CCCC1; Aze = O=C(O)[C@@H]1CCN1; NEtG = CCNCC(=O)O; Sar = CNCC(=O)O
# How the values were obtained:
# [1] = biological target: GDP-bound KRAS wild-type protein (Homo sapiens, UniProt P01116); assay: Binding to KRAS by surface plasmon resonance (SPR), Single Cycle Kinetics; conditions: SPR Single Cycle Kinetics, GDP-bound KRAS wild-type protein, 1:1 binding model; read-out: KRAS KD
# GDP-bound KRAS wild-type protein, sequence (P01116 whole entry): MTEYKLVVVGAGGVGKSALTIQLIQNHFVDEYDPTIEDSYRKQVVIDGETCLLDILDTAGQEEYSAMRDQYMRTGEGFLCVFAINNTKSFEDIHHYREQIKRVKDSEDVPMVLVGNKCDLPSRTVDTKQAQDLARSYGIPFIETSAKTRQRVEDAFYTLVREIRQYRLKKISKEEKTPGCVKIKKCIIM
# [2] = biological target: GDP-bound NRAS wild-type protein (Homo sapiens, UniProt P01111); assay: Binding to NRAS by surface plasmon resonance (SPR), Single Cycle Kinetics; conditions: SPR, GDP-bound NRAS wild-type protein vs GDP-bound KRAS wild-type protein
# GDP-bound NRAS wild-type protein, sequence (P01111 whole entry): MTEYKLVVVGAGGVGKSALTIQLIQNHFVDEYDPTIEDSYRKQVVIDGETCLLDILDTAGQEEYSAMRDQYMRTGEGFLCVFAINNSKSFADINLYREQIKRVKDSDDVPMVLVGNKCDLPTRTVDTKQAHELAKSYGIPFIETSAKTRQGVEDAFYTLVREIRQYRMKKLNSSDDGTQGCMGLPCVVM
# [3] = biological target: GDP-bound HRAS wild-type protein (Homo sapiens, UniProt P01112); assay: Binding to HRAS by surface plasmon resonance (SPR), Single Cycle Kinetics; conditions: SPR, GDP-bound HRAS wild-type protein vs GDP-bound KRAS wild-type protein
# GDP-bound HRAS wild-type protein, sequence (P01112 whole entry): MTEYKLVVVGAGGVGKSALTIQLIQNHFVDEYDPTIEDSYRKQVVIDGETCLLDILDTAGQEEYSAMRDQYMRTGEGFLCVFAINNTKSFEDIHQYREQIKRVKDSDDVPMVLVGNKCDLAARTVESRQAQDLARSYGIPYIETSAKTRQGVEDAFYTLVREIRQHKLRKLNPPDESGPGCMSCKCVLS
Compound,Kd [1],NRAS/KRAS (ratio of KD value for NRAS to KD value for KRAS) [2],HRAS/KRAS (ratio of KD value for HRAS to KD value for KRAS) [3]
CCCN1C(=O)CN(CC)C(=O)CN(C)C(=O)[C@H]([C@@H](C)CC)NC(=O)[C@H](CC(C)C)N(C)C(=O)C[C@@H](C(=O)N2CCOCC2)N(C)C(=O)[C@H](C2CCCC2)N(C)C(=O)C2(CCCC2)NC(=O)[C@@H]2CCCN2C(=O)[C@H](CCc2ccc(C(F)(F)F)c(Cl)c2)NC(=O)CN(C)C(=O)[C@@H]1Cc1ccc(C)cc1 [PP0065] ([NMeL]I[Sar][NEtG][NPrPhe(4-Me)][Sar][hPhe(3-Cl-4-CF3)]P[Ac5c][NMeGly(cPent)][NMeD]-Morpholide; lactam N-11),0.54 nM,C (A compound having a KD ratio of 0.1 or more and less than 3 is denoted as C),C (A compound having a KD ratio of 0.1 or more and less than 3 is denoted as C)
CCCN1C(=O)CN(C)C(=O)CN(C)C(=O)[C@H]([C@@H](C)CC)NC(=O)[C@H](CC(C)C)N(C)C(=O)C[C@@H](C(=O)N2CCOCC2)N(C)C(=O)[C@H](C2CCCC2)N(C)C(=O)C2(CCCC2)NC(=O)[C@@H]2CCCN2C(=O)[C@H](CCc2ccc(C(F)(F)F)c(Cl)c2)NC(=O)CN(CC)C(=O)[C@@H]1Cc1ccc(C)cc1 [PP0066] ([NMeL]I[Sar][Sar][NPrPhe(4-Me)][NEtG][hPhe(3-Cl-4-CF3)]P[Ac5c][NMeGly(cPent)][NMeD]-Morpholide; lactam N-11),1.4 nM,B (a compound having 3 or more and less than 10 is denoted as B),C (A compound having a KD ratio of 0.1 or more and less than 3 is denoted as C)
CCCN1C(=O)CN(CC)C(=O)CN(C)C(=O)[C@H]([C@@H](C)CC)NC(=O)[C@H](CC(C)C)N(C)C(=O)C[C@@H](C(=O)N2CCOCC2)N(C)C(=O)[C@H](C2CCCC2)N(C)C(=O)C2(CCCC2)NC(=O)[C@@H]2CCCN2C(=O)[C@H](CCc2ccc(C(F)(F)F)c(Cl)c2)NC(=O)CN(CC)C(=O)[C@@H]1Cc1ccc(C)cc1 [PP0069] ([NMeL]I[Sar][NEtG][NPrPhe(4-Me)][NEtG][hPhe(3-Cl-4-CF3)]P[Ac5c][NMeGly(cPent)][NMeD]-Morpholide; lactam N-11),6.9 nM,C (A compound having a KD ratio of 0.1 or more and less than 3 is denoted as C),C (A compound having a KD ratio of 0.1 or more and less than 3 is denoted as C)
CC[C@H](C)[C@@H]1NC(=O)[C@H](CC(C)C)N(C)C(=O)C[C@@H](C(=O)N2CCOCC2)N(C)C(=O)[C@H](C2CCCC2)N(C)C(=O)C2(CCCC2)NC(=O)[C@@H]2CCCN2C(=O)[C@H](CCc2ccc(C(F)(F)F)c(Cl)c2)NC(=O)CN(C)C(=O)[C@H](Cc2ccc(C)cc2)N(CC2CCCC2)C(=O)[C@@H]2CCN2C(=O)[C@H](C)N(C)C1=O [PP0084] ([NMeL]I[NMeA][Aze][X20][Sar][hPhe(3-Cl-4-CF3)]P[Ac5c][NMeGly(cPent)][NMeD]-Morpholide; lactam N-11),2.7 nM,C (A compound having a KD ratio of 0.1 or more and less than 3 is denoted as C),B (a compound having 3 or more and less than 10 is denoted as B)
CC[C@H](C)[C@@H]1NC(=O)[C@H](CC(C)C)N(C)C(=O)C[C@@H](C(=O)N2CCOCC2)N(C)C(=O)[C@H](C2CCCC2)N(C)C(=O)C2(CCCC2)NC(=O)[C@@H]2CCCN2C(=O)[C@H](CCc2ccc(C(F)(F)F)c(Cl)c2)NC(=O)CN(C)C(=O)[C@H](Cc2ccc(C)cc2)N(CC2CCCCC2)C(=O)[C@@H]2CCN2C(=O)[C@H](C)N(C)C1=O [PP0085] ([NMeL]I[NMeA][Aze][X41][Sar][hPhe(3-Cl-4-CF3)]P[Ac5c][NMeGly(cPent)][NMeD]-Morpholide; lactam N-11),8.4 nM,C (A compound having a KD ratio of 0.1 or more and less than 3 is denoted as C),C (A compound having a KD ratio of 0.1 or more and less than 3 is denoted as C)
CC[C@H](C)[C@@H]1NC(=O)[C@H](CC(C)C)N(C)C(=O)C[C@@H](C(=O)N2CCOCC2)N(C)C(=O)[C@H](C2CCCC2)N(C)C(=O)C2(CCCC2)NC(=O)[C@@H]2CCCN2C(=O)[C@H](CCc2ccc(C(F)(F)F)c(Cl)c2)NC(=O)CN(C)C(=O)[C@H](Cc2ccc(C)cc2)N(CCC(C)C)C(=O)[C@@H]2CCN2C(=O)[C@H](C)N(C)C1=O [PP0086] ([NMeL]I[NMeA][Aze][X15][Sar][hPhe(3-Cl-4-CF3)]P[Ac5c][NMeGly(cPent)][NMeD]-Morpholide; lactam N-11),0.26 nM,C (A compound having a KD ratio of 0.1 or more and less than 3 is denoted as C),B (a compound having 3 or more and less than 10 is denoted as B)
CC[C@H](C)[C@@H]1NC(=O)[C@H](CC(C)C)N(C)C(=O)C[C@@H](C(=O)N2CCOCC2)N(C)C(=O)[C@H](C2CCCC2)N(C)C(=O)C2(CCCC2)NC(=O)[C@@H]2CCCN2C(=O)[C@H](CCc2ccc(C(F)(F)F)c(Cl)c2)NC(=O)CN(C)C(=O)[C@H](Cc2ccc(C)cc2)N(CC2CCC2)C(=O)CN(C)C(=O)CN(C)C1=O [PP0095] ([NMeL]I[Sar][Sar][X42][Sar][hPhe(3-Cl-4-CF3)]P[Ac5c][NMeGly(cPent)][NMeD]-Morpholide; lactam N-11),0.79 nM,C (A compound having a KD ratio of 0.1 or more and less than 3 is denoted as C),C (A compound having a KD ratio of 0.1 or more and less than 3 is denoted as C)

# Now those with a lower Kd [1], led by results:
Kd [1],Compound,NRAS/KRAS (ratio of KD value for NRAS to KD value for KRAS) [2],HRAS/KRAS (ratio of KD value for HRAS to KD value for KRAS) [3]
0.23 nM,CC[C@H](C)[C@@H]1NC(=O)[C@H](CC(C)C)N(C)C(=O)C[C@@H](C(=O)N2CCOCC2)N(C)C(=O)[C@H](C2CCCC2)N(C)C(=O)C2(CCCC2)NC(=O)[C@@H]2CCCN2C(=O)[C@H](CCc2ccc(C(F)(F)F)c(Cl)c2)NC(=O)CN(C)C(=O)[C@H](Cc2ccc(C)cc2)N(CCC(F)(F)F)C(=O)[C@@H]2CCN2C(=O)[C@H](C)N(C)C1=O [PP0091] ([NMeL]I[NMeA][Aze][X36][Sar][hPhe(3-Cl-4-CF3)]P[Ac5c][NMeGly(cPent)][NMeD]-Morpholide; lactam N-11),C (A compound having a KD ratio of 0.1 or more and less than 3 is denoted as C),B (a compound having 3 or more and less than 10 is denoted as B)
0.17 nM,C=CCCN1C(=O)[C@@H]2CCN2C(=O)[C@H](C)N(C)C(=O)[C@H]([C@@H](C)CC)NC(=O)[C@H](CC(C)C)N(C)C(=O)C[C@@H](C(=O)N2CCOCC2)N(C)C(=O)[C@H](C2CCCC2)N(C)C(=O)C2(CCCC2)NC(=O)[C@@H]2CCCN2C(=O)[C@H](CCc2ccc(C(F)(F)F)c(Cl)c2)NC(=O)CN(C)C(=O)[C@@H]1Cc1ccc(C)cc1 [PP0089] ([NMeL]I[NMeA][Aze][X30][Sar][hPhe(3-Cl-4-CF3)]P[Ac5c][NMeGly(cPent)][NMeD]-Morpholide; lactam N-11),C (A compound having a KD ratio of 0.1 or more and less than 3 is denoted as C),B (a compound having 3 or more and less than 10 is denoted as B)
0.15 nM,CC[C@H](C)[C@@H]1NC(=O)[C@H](CC(C)C)N(C)C(=O)C[C@@H](C(=O)N2CCOCC2)N(C)C(=O)[C@H](C2CCCC2)N(C)C(=O)C2(CCCC2)NC(=O)[C@@H]2CCCN2C(=O)[C@H](CCc2ccc(C(F)(F)F)c(Cl)c2)NC(=O)CN(C)C(=O)[C@H](Cc2ccc(C)cc2)N(CCOC)C(=O)[C@@H]2CCN2C(=O)[C@H](C)N(C)C1=O [PP0092] ([NMeL]I[NMeA][Aze][X35][Sar][hPhe(3-Cl-4-CF3)]P[Ac5c][NMeGly(cPent)][NMeD]-Morpholide; lactam N-11),C (A compound having a KD ratio of 0.1 or more and less than 3 is denoted as C),C (A compound having a KD ratio of 0.1 or more and less than 3 is denoted as C)
0.076 nM,CC[C@H](C)[C@@H]1NC(=O)[C@H](CC(C)C)N(C)C(=O)C[C@@H](C(=O)N2CCOCC2)N(C)C(=O)[C@H](C2CCCC2)N(C)C(=O)C2(CCCC2)NC(=O)[C@@H]2CCCN2C(=O)[C@H](CCc2ccc(C(F)(F)F)c(Cl)c2)NC(=O)CN(C)C(=O)[C@H](Cc2ccc(C)cc2)N(CCCOC)C(=O)[C@@H]2CCN2C(=O)[C@H](C)N(C)C1=O [PP0093] ([NMeL]I[NMeA][Aze][X28][Sar][hPhe(3-Cl-4-CF3)]P[Ac5c][NMeGly(cPent)][NMeD]-Morpholide; lactam N-11),C (A compound having a KD ratio of 0.1 or more and less than 3 is denoted as C),B (a compound having 3 or more and less than 10 is denoted as B)
0.064 nM,CC[C@H](C)[C@@H]1NC(=O)[C@H](CC(C)C)N(C)C(=O)C[C@@H](C(=O)N2CCOCC2)N(C)C(=O)[C@H](C2CCCC2)N(C)C(=O)C2(CCCC2)NC(=O)[C@@H]2CCCN2C(=O)[C@H](CCc2ccc(C(F)(F)F)c(Cl)c2)NC(=O)CN(C)C(=O)[C@H](Cc2ccc(C(F)(F)F)cc2)N(C)C(=O)CN(C)C(=O)CN(C)C1=O [PP0076] ([NMeL]I[Sar][Sar][NMePhe(4-CF3)][Sar][hPhe(3-Cl-4-CF3)]P[Ac5c][NMeGly(cPent)][NMeD]-Morpholide; lactam N-11),C (A compound having a KD ratio of 0.1 or more and less than 3 is denoted as C),C (A compound having a KD ratio of 0.1 or more and less than 3 is denoted as C)
